Tested on: Anguilla japonica leptocephali
Assay: Induction of Anguilla japonica metamorphosis by T4 treatment in 23° C. breeding water
Format: in vivo
Design: key: Y: Metamorphosis completed (seed production completed).; Nd: Dead.; Nf: Food intake unidentified.; Ng: Not metamorphosed into glass eels
Excerpt: Stage 1: Starting phase of metamorphosis. The rostral end is rounded, and intestinal degeneration starts.
Stage 2: Peak phase of metamorphosis. Intestinal degeneration becomes pronounced. In the second half, the anus reaches to near the last vertical blood vessel (VBV last).
Stage 3: Late phase of metamorphosis. The preanal length (PAL) becomes equal to or shorter than the last vertical blood vessel length (VBV last Length) (PAL VBV last Length). The body height is apparently low.
Stage 4: Pre-glass eel stage. Almost the eel form, but the body height still remains. Melanophores on the body surface or endogenous melanophores are not yet seen.
Elver stage: Juvenile stage. Food intake can be identified.
A thyroid hormone (e.g., thyroxine (T4)) is adjusted to 50 to 100 mM in a 1- to 2-mL volume messflask. As a solvent, known solvents (water, alcohol) can be used. Ethanol is preferably used as the solvent.
For example, using ethanol as a solvent, T4 adjusted to 50 mM is diluted 500-fold, 5,000-fold, and 50,000-fold, respectively, and adjusted to […], 1 μM, and 100 nM. A feed can be prepared in this manner.
Artificial seawater is added to a breeding vessel, and 1/1000 of the […] T4 is added to prepare […] T4 breeding water.
Half of the breeding water is replaced every two days with breeding water of the same concentration. In the case where the concentration is changed, for example, in the case of changing from 10 nM to 2 nM, 80% to the breeding water is removed, and unadjusted artificial seawater is newly added to make 1 L.
Leptocephali visually considered to have reached a total length of 40 mm (or may be 30 mm to 50 mm, may be 35 mm to 45 mm, or may also be 35 mm or more, 40 mm or more, or 45 mm or more) are selected, anesthetized with 2-phenoxyethanol, and then photographed, and the total length of each larva is measured using an image analyzing device.
The larvae are placed in 10 nM T4 breeding water and then placed in an incubator set at 23° C., and breeding is started. In first one week, observation is performed every two days, and half of the 10 nM T4 breeding water is replaced each time. The average amount of thyroid hormone in the breeding water in stage 1 is 1 nM to 100 nM, for example, and may also be 3 nM to 30 nM, or 5 nM to 20 nM.
For larvae visually judged to have reached the second half of stage 2, the concentration of the breeding water is changed. The breeding water is diluted 5-fold or 10-fold and adjusted to 2 nM or 1 nM T4, and breeding is continued. The average amount of thyroid hormone in the breeding water in stage 2 may be, as compared with the breeding water of stage 1, diluted 2-fold to 20-fold, diluted 3 to 15-fold, or diluted 5 to 10-fold as described above. The average amount of thyroid hormone in the breeding water in stage 2 is 0.1 nM to 20 nM, for example, and may also be 0.5 nM to 10 nM, 1 nM to 5 nM, or 1 nM to 2 nM.
For larvae visually judged to have reached stage 3, the breeding water is quickly changed 0.2 nM T4 breeding water, which is a 5-fold dilution of 1 nM T4 breeding water, and further changed to 0.1 nM T4 breeding water on the following day. […] Also, in larvae whose anus position has not reached the last vertical hemal spine, when they are judged to be on the brink of stage 3, the concentration is changed as above. The average amount of thyroid hormone in the breeding water in stage 3 may be, as compared with the breeding water of stage 2, diluted 2-fold to 50-fold, diluted 3 to 15-fold, diluted 4 to 6-fold, or diluted 5-fold as described above. The average amount of thyroid hormone in the breeding water in stage 3 is 0.01 nM to 2 nM, for example, and may also be 0.05 nM to 1 nM, 0.1 nM to 0.5 nM, or 0.1 nM to 0.2 nM. […] That is, the concentration may be changed such that the thyroid hormone becomes undetectable in the breeding water in the course of stage 3.
In stage 3, breeding is continuously performed in the 0.1 nM T4 breeding water. […]

Compound: N[C@@H](Cc1cc(I)c(Oc2cc(I)c(O)c(I)c2)c(I)c1)C(=O)O [T4, thyroxine]
- Elver (individual Exp 6-2, 129 days old, total length 38.1 mm at start of T4 treatment): Y
- Elver (individual Exp 6-3, 129 days old, total length 37.4 mm at start of T4 treatment): Y
- Elver (individual Exp 6-4, 129 days old, total length 36.6 mm at start of T4 treatment): Y
- Elver (individual Exp 6-5, 129 days old, total length 36.4 mm at start of T4 treatment): Ng
- Elver (individual Exp 6-6, 129 days old, total length 34.6 mm at start of T4 treatment): Nf
- Elver (individual Exp. 6-1, 129 days old, total length 40.6 mm at start of T4 treatment): Y
